# Test results from US20220031710A1, “USE OF ERK5 INHIBITORS FOR TREATING GLIOMAS IN PEDIATRIC SUBJECTS” (UNIVERSITY OF PITTSBURGH - OF THE COMMONWEALTH SYSTEM OF …, priority 2019, published 2022).
# Experiments:
# [1] = tested on: CNMC-XD-760; assay: Alamar blue viability EC50 in H3 wildtype DIPG cell line; assay type: cell-based, human; details: CNMC-XD-760 (DIPG histone wildtype H3) compared to H3 mutant DIPG cells and hemispheric pGBM cells; 96 h
# Method: (§1) Direct cell counts were performed using the Countess II FL Automated Cell Counter (ThermoFisher Scientific). Alamar blue viability (ThermoFisher Scientific) and the 5-bromo-2′-deoxyuridine (BrdU) incorporated cell proliferation assay (Cell Signaling Technology Cat #6813) were performed using the manufacturer's standard protocol. EC50 curve analysis was performed using raw fluorescent Alamar blue values that were inputted into PRISM 7.0. Drug concentrations were log 10 transformed and values normalized to percent viability with respect to vehicle treated cells. EC50 values were interpolated from a log inhibitor vs. normalized response with variable slope using a least square fit model.
# [2] = target: T1, ERK5 (Homo sapiens, UniProt Q13164); assay: Western blot of tumor lysates from treated mice (pERK5, cleaved PARP); assay type: in vivo; design: from tissue; host or cells: Tumour lysates from orthotopic DIPG xenografts (SF8628 or DIPG-13p) in NOD-SCID mice; details: mice sacrificed after 5 days of treatment
# Method: Cell pellets were lysed in PLC lysis buffer containing protease and phosphatase inhibitors (Roche Inc.). Protein lysates were quantified using the bicinchoninic acid (BCA) assay (Pierce Chemical Co., Rockford, Ill.). 30 μg of total protein lysate was loaded in 10% SDS-PAGE gels and electrophoresed. Proteins were transferred to PVDF membranes using a semi-dry transfer apparatus (Bio-Rad). Membranes were blocked for one hour and probed for various proteins overnight in 5% non-fat milk or 5% BSA in Tris Buffered Saline Solution, 0.5% Tween-20 (TBST) or Phosphate Buffered Saline Solution with 0.5% Tween-20 (PBST). Membranes were washed for 5 mins in TBST (3×) and incubated with horseradish peroxidase-conjugated antibodies specific for the primary antibody (BioRad Laboratories, Inc., CA, USA). Binding was detected using Chemiluminescence Reagent Plus (PerkinElmer Inc., MA, USA). Antibodies were used at the following dilutions:
# (§2) All animal procedures were carried out ethically according to animal user protocols approved by Institutional Animal Care Committee (IACUC). 4-6 week-old non-obese diabetic severe combined immune deficiency male or female mice (NOD-SCID-Prkdc^scid) were injected with 1×10^5 SU-DIPG-13p cells or 1×10^5 SF8628 DIPG cells. […]
# [3] = target: T1, ERK5; assay: In vitro kinase assay of purified recombinant ERK5 and MYC; assay type: biochemical; design: purchased ThermoFisher Scientific A32872; details: 200 μM ATP, 30 minutes at 30° C.
# Method: Purified active recombinant ERK5 protein was purchased from ThermoFisher Scientific (Cat #A32872) and purified recombinant MYC was purchased from Abcam (Cat #ab84132). Purified ERK5 and MYC were resuspended in 40 μl of 1× kinase buffer supplemented with 200 μM ATP, 0.25 μg substrate, and 1.0 μg purified recombinant and active kinase. Samples were incubated in the presence or absence of ERK5 inhibitors for 30 minutes at 30° C. The reaction was terminated with 20 μl 3×SDS sample buffer. Samples were then boiled at 100° C. for 5 minutes and then evaluated by western blotting using a phospho MYC ser62 antibody (1:1000). 1× Kinase Buffer recipe: 25 mM Tris (pH 7.5), 5 mM β-glycerophosphate, 2 mM DTT, 0.1 mM Na3VO4, 10 mM MgCl2.
# [4] = tested on: SF8628 intracranial xenografts; assay: SF8628 orthotopic xenograft model; assay type: in vivo, mice
# Method: (§3) Paraffin embedded blocks were cut in 5 μm sections. Slides were processed as follows: de-waxed in xylene followed by rehydration in a standard alcohol series. Antigen retrieval was by pressure cooking for 20 minutes in citrate buffer (pH 6.0), followed by blocking of endogenous peroxidase in 3% H2O2. The antibodies were added and incubated overnight at 4° C. Antibodies were detected using a secondary-HRP labeled mouse or rabbit antibody detection system (Dako EnVision+ System-HRP cat #k4401, cat #k4403) followed by addition 3,3′-Diaminobenzidine (DAB) chromagen (Vector Labs) for visualization. Sections were counter-stained with hematoxylin (Fisher Scientific Inc., Canada) and slides dehydrated in 70, 80, and 100% ethanol and xylene. Slides were cover slipped and mounted in Permount (Fisher Scientific Inc.). Antibodies and concentrations for IHC are as follows: Ki67 (1:100, Dako, cat #F7268). All images were captured on a Leica DM 100 microscope using Leica Application Suite Software (Switzerland, Version 3.8.0).
# as §2
# [5] = tested on: DIPG-13p cells xenograft; assay: DIPG-13p orthotopic xenograft model; assay type: in vivo, mice; details: 50 mg/kg, 2 cycles of 5 days on 2 days off; DIPG-13p xenograft
# Method: as §3, §2
# [6] = tested on: DIPG-007, DIPG-IV, SF8628, and DIPG-13p cells; assay: Alamar blue viability EC50 dose response in H3K27M DIPG cells; assay type: cell-based; details: Homo sapiens, 96 h, SF8628, DIPG-13p cells, lowest of the ERK5 inhibitors tested
# Method: (§4) Human Neural Stem Cells (H9 hESC-Derived) were purchased from Invitrogen and grown in DMEM/F12 containing penicillin/streptomycin/amphotericin B (1% vol/vol) supplemented with N2 (2% vol/vol; Invitrogen), EGF (20 ng/ml; Invitrogen), and FGF-2 (20 ng/ml; Invitrogen). DIPG cell lines (all with the H3K27M mutation) SU-DIPG-IV (DIPG-IV), SU-DIPG-13p (DIPG-13p), and HSJD-DIPG-007 (DIPG-007) were grown and passaged in DIPG medium as previously reported (Grasso et al., Nature medicine 2015; 21:555-9; Nagaraja et al., Cancer cell 2017; 31:635-52 e6; Vinci et al., Nature medicine 2018). SF8628 and immortalized NHAs were grown in DMEM (Invitrogen) supplemented with 10% FBS (Invitrogen). All cell lines were confirmed by STR profiling and tested mycoplasma negative by PCR. All tumor-derived cell lines used are described in Table 2.
# as §1, with “EC50 values were interpolated from a log inhibitor vs. normalized response with variable slope using a least square fit model.” left out
# [7] = tested on: NSCs; assay: Alamar blue viability EC50 in neural stem cells; assay type: cell-based, human
# Method: as §4
# as §1, with “EC50 values were interpolated from a log inhibitor vs. normalized response with variable slope using a least square fit model.” left out
# T1 sequence (Q13164 whole entry): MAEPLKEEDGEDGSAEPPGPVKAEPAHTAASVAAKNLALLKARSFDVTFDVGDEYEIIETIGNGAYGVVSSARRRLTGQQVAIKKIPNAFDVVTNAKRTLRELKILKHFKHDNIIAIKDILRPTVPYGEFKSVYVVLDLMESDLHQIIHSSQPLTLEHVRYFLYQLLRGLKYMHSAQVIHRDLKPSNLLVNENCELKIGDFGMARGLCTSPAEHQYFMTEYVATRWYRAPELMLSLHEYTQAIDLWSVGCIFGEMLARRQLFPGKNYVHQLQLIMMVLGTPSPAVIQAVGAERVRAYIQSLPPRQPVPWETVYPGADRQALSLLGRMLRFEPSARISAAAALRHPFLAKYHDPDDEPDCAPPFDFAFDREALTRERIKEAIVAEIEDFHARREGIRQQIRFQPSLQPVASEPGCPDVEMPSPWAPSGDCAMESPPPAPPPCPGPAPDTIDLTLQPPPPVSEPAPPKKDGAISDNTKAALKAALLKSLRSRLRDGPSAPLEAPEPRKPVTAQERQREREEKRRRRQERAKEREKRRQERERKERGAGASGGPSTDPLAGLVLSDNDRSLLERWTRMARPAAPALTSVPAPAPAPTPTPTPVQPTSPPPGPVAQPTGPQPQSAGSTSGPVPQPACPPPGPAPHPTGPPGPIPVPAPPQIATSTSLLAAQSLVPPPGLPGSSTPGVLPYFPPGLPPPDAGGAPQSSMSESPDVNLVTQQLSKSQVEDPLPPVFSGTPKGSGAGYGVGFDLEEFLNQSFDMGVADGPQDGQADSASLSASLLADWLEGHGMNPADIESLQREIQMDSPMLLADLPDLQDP
structure (smiles),measurement,setting,value
"CCOc1cc(C(=O)N2CCC(N3CCN(C)CC3)CC2)ccc1Nc1ncc2c(n1)N(C1CCCC1)c1ccccc1C(=O)N2C [ERK5-IN-1, 11-cyclopentyl-2-[[2-ethoxy-4-[[4-(4-methyl-1-piperazinyl)-1-piperidinyl]carbonyl]phenyl]amino]-5,11-dihydro-5-methyl-6H-pyrimido[4,5b][1,4]benzodiazepin-6-one]",EC50 values for ERK5-IN-1,[1],highest EC50 values
same,apoptosis by cleaved PARP in vivo,[2],induction of apoptosis
same,in vivo ERK5 auto-phosphorylation,[2],inhibition of ERK5 auto-phosphorylation
same,Phosphorylation of MYC(S62),[3],inhibited
same,median survival,"[4]; 50 mg/kg for 2 weeks (2 cycles of 5 days on 2 days off), SF8628 intracranial xenografts",40 days
same,KI-67 staining,"[4]; 50 mg/kg, SF8628 xenograft tumors, vs vehicle",reduced
same,median survival,[5],30 days
same,EC50,[6],500 to 1000 nM
same,ERK5-IN-1 EC50 values,"[7]; NSCs and NSCs over expressing wildtype H3, compared to H3K27M DIPG and hemispheric pGBM lines",higher
same,ERK5-IN-1 EC50 values,[7]; NSCs expressing H3K27M,significantly lower
